In one assay the target is T1, hA1AR G279S^7.44 (Homo sapiens, UniProt P30542, G279S).
T1 sequence (P30542 1-326 G279S): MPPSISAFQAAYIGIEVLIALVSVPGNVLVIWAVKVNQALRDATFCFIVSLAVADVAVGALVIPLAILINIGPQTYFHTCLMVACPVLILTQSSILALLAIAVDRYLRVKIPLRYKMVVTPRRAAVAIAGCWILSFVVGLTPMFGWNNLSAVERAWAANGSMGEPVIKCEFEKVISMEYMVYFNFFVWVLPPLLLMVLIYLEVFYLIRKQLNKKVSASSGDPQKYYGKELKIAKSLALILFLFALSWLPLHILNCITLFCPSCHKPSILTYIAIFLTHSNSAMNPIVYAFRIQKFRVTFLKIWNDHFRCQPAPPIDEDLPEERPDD
The note with it: [35S]GTPγS; CPA at EC80; ratio over basal activity of wild type or mutant hA1AR. The method, then:
(§1) Transient transfection of CHO cells with wild type or mutated hA1AR plasmid constructs was performed using a polyethylenimine (PEI) method. Cells were seeded in 10-cm culture dishes to achieve 50–60% confluency 24 h prior to transfection. On the day of transfection, cells were transfected with a PEI: DNA ratio of 3:1 and a plasmid DNA amount of 10 μg/dish. Moreover, 24 h post-transfection, the medium was refreshed, and 48 h after transfection, cells were collected and membranes were prepared as previously described. Membranes were aliquoted in 250 or 100 μL and stored at −80 °C. Membrane protein concentrations were determined using the BCA method.
(§2) [^35S]GTPγS binding assays were adapted from a previously published method. […] Then, 20 µL of [^35S]GTPγS (final concentration of 0.3 nM) was added to each well, followed by 90 min of incubation at 25 °C. Incubations were terminated and filter-bound radioactivity was measured as described above.
(§3) All experimental data were analyzed by GraphPad Prism 7.0 or 8.0 (GraphPad Software Inc., San Diego, CA, USA). Data from yeast liquid growth and [^35S]GTPγS binding assays were analyzed by non-linear regression using “log (agonist) vs. response (three parameters)” or “log (inhibitor) vs. response (three parameters)” to obtain potency (EC50), inhibitory potency (IC50), and efficacy (Emax or Imax) values. The radioligand displacement curves were obtained from a statistically preferred one-site or two-site binding model. pKi values were calculated from pIC50 values using the Cheng–Prusoff equation, where KD values were obtained from the homologous competition assays from this study and calculated by non-linear regression using “one site–homologous” [62].
(In general: GTPγS is a poorly hydrolysed GTP analogue; its binding reports G protein activation.)

The target of another assay is T2, hA1AR S246T^6.47 (Homo sapiens, UniProt P30542, S246T).
T2 sequence (P30542 1-326 S246T): T1 sequence (P30542 1-326 G279S) with S246T, S279G
The note with it: [35S]GTPγS; CPA at EC80; ratio over basal activity of wild type or mutant hA1AR. How it is done: as §1, §2, §3

For the next assay, the target named is T3, wild type hA1AR (Homo sapiens, UniProt P30542).
T3 sequence (P30542 1-326): T1 sequence (P30542 1-326 G279S) with S279G
The note with it: [35S]GTPγS; CPA at EC80; ratio over basal activity of wild type or mutant hA1AR. The method, then: as §1, §2, §3

In another assay the target is T4, hA1AR W188C^5.46 (Homo sapiens, UniProt P30542, W188C).
T4 sequence (P30542 1-326 W188C): T1 sequence (P30542 1-326 G279S) with W188C, S279G
The note with it: [35S]GTPγS; CPA at EC80; ratio over basal activity of wild type or mutant hA1AR. How it is done:
as §1, §2, §3

The target of assay [1] is T5, hA1AR H78L^3.23 (Homo sapiens, UniProt P30542, H78L).
T5 sequence (P30542 1-326 H78L): T1 sequence (P30542 1-326 G279S) with H78L, S279G
The note with it: [35S]GTPγS; CPA at EC80; ratio over basal activity of wild type or mutant hA1AR. How it is done: as §1, §2, §3

A further assay has as its target T6, hA1AR L134F^4.52 (Homo sapiens, UniProt P30542, L134F).
T6 sequence (P30542 1-326 L134F): T1 sequence (P30542 1-326 G279S) with L134F, S279G
The note with it: [35S]GTPγS; CPA at EC80; ratio over basal activity of wild type or mutant hA1AR. The method, then:
as §1, §2, §3

For assay [2], the target named is T5, hA1AR H78L^3.23. Description: yeast liquid growth assay. In kind it is cell-based. The following applies: result in words. The method, then:
The plasmids, pDT-PGK_hA1AR, containing either wild type or mutated hA1AR were transformed into a MMY24 S. cerevisiae strain following the lithium acetate procedure.
In order to characterize the mutant hA1ARs, liquid growth assays in 96-well plates were performed to obtain concentration–growth curves as previously described. […] The overnight cultures were then diluted to 40,000 cells/mL (OD600 ≈ 0.02) in a selective medium without uracil, leucine, and histidine (YNB-ULH). For the determination of constitutive activity, 50 μL of yeast cells and 150 μL of YNB-ULH medium containing different concentrations of 3-AT and 0.8 IU/mL ADA were then added to each well. To obtain concentration–growth curves, 2 μL of various concentrations of ligands, 50 μL of yeast cells, and 150 μL of YNB-ULH medium containing 7 mM 3-AT and 0.8 IU/mL ADA were then added to each well. After incubation at 30 °C for 35 h in a Genios plate reader (TECAN, Zürich, Switzerland) with shaking for 1 min at 300 rpm every 10 min, the optical density was measured at a wavelength of 595 nm, which represented the level of yeast cell growth.
as §3

The structures appear in SMILES notation. Numbering of substitutions follows the chain as printed.

Turning to `CCCn1c(=O)c2[nH]c(C3CCCC3)nc2n(CCC)c1=O` [DPCPX, 8-cyclopentyl-1,3-dipropylxanthine], the Imax at hA1AR G279S^7.44 worked out at 0.65 ± 0.08; at hA1AR S246T^6.47, 0.70 ± 0.05; on wild type hA1AR, 0.67 ± 0.05; on hA1AR W188C^5.46, 0.74 ± 0.03; at hA1AR H78L^3.23 [1], 0.83 ± 0.03; at hA1AR L134F^4.52, 0.68 ± 0.01. The “reduction of constitutive activity by inverse agonist” value on hA1AR H78L^3.23 [2] is “not reduced”.

For the origin of these results see article PMC9229843, “Cancer-Related Somatic Mutations in Transmembrane Helices Alter Adenosine A1 Receptor Pharmacology” (Molecules, 2022).
